Consider five compounds from patent US20050075382A1, “N-Aryl-2-cyanooxazolidinones and their derivatives” (priority 2003, published 2005).

≈ marks a conversion by molar mass, not a printed value.

The test system of the test is Staphylococcus aureus (SAUR 9213). The experiment in a line: MIC by standard agar dilution method. It counts as cell-based. The note with it: Mueller Hinton agar, overnight at 35° C. The text has this:
The antibacterial agents of this invention have useful activity against a variety of organisms. The in vitro activity of compounds of this invention can be assessed by standard testing procedures such as the determination of minimum inhibitory concentration (MIC) by agar dilution as described in “Approved Standard. Methods for Dilution Antimicrobial Susceptibility Tests for Bacteria That Grow Aerobically”, 3rd. ed., published 1993 by the National Committee for Clinical Laboratory Standards, Villanova, Pa., USA. The in vitro MICs of test compounds are determined by a standard agar dilution method. A stock drug solution of each analog is prepared in the preferred solvent, usually DMSO:H2O (1:3). Serial 2-fold dilutions of each sample are made using 1.0 ml aliquots of sterile distilled water. To each 1.0 ml aliquot of drug is added 9 ml of molten Mueller Hinton agar medium. The drug-supplemented agar is mixed, poured into 15×100 mm petri dishes, and allowed to solidify and dry prior to inoculation. Vials of each of the test organisms are maintained frozen in the vapor phase of a liquid nitrogen freezer. Test cultures are grown overnight at 35° C. on the medium appropriate for the organism. Colonies are harvested with a sterile swab, and cell suspensions are prepared in Trypticase Soy broth (TSB) to equal the turbidity of a 0.5 McFarland standard. A 1:20 dilution of each suspension is made in TSB. The plates containing the drug supplemented agar are inoculated with a 0.001 ml drop of the cell suspension using a Steers replicator, yielding approximately 10^4 to 10^5 cells per spot. The plates are incubated overnight at 35° C. Following incubation the Minimum Inhibitory Concentration (MIC μg/ml), the lowest concentration of drug that inhibits visible growth of the organism, is read and recorded.
In turn, `N#C[C@H]1CN(c2cc(F)c(N3CCS(=O)(=O)CC3)c(F)c2)C(=O)O1` [Example 3, (5R)-3-[4-(1,1-dioxidothiomorpholin-4-yl)-3,5-difluorophenyl]-2-oxo-1,3-oxazolidine-5-carbonitrile] returned an MIC of 2 µg/mL (≈ 5.6 µM). Compound `N#C[C@H]1CN(c2ccc(-c3ccncc3)c(F)c2)C(=O)O1` [Example 5, (5R)-3-(3-fluoro-4-pyridin-4-ylphenyl)-2-oxo-1,3-oxazolidine-5-carbonitrile] yielded an MIC of 0.5 µg/mL (≈ 1.77 µM). `N#C[C@H]1CN(c2ccc(C3CCS(=O)(=O)CC3)c(F)c2)C(=O)O1` [Example 1, (5R)-3-[4-(1,1-dioxidotetrahydro-2H-thiopyran-4-yl)-3-fluorophenyl]-2-oxo-1,3-oxazolidine-5-carbonitrile] showed an MIC of 1 µg/mL (≈ 2.96 µM). Compared with the last compound, the MIC is about 2-fold higher. The compound `Cc1nnc(-c2ccc(N3C[C@H](C#N)OC3=O)cc2F)s1` [Example 4, (5R)-3-[3-fluoro-4-(5-methyl-1,3,4-thiadiazol-2-yl)phenyl]-2-oxo-1,3-oxazolidine-5-carbonitrile] returned an MIC of 4 µg/mL (≈ 13.1 µM). This MIC is about 4-fold higher than that of the compound before. For the compound `N#C[C@H]1CN(c2ccc(N3CCOCC3)c(F)c2)C(=O)O1` [Example 2, (5R)-3-(3-fluoro-4-morpholin-4-ylphenyl)-2-oxo-1,3-oxazolidine-5-carbonitrile], the MIC was 8 µg/mL (≈ 27.5 µM).
